Experimental data: patent US20260364079A1 (Principia Biopharma Inc., priority 2022, published 2026)

Assay: phase 1/2 study in relapsed/refractory ITP (NCT03395210), safety
Excerpt: The Safety Population was used for all safety analyses.
Pre-existing conditions that worsened during a study were reported as AEs.
Safety was graded per NCI CTCAE, version 4.0.

[1] = any cause, unrelated to rilzabrutinib treatment, patients
[2] = baseline through end of treatment

## CC(C)(C=C(C#N)C(=O)N1CCC[C@@H](n2nc(-c3ccc(Oc4ccccc4)cc3F)c3c(N)ncnc32)C1)N1CCN(C2COC2)CC1 (mixture of isomers) [rilzabrutinib, (R)-2-[3-[4-amino-3-(2-fluoro-4-phenoxy-phenyl)pyrazolo[3,4-d]pyrimidin-1-yl]piperidine-1-carbonyl]-4-methyl-4-[4-(oxetan-3-yl)piperazin-1-yl]pent-2-enenitrile]
TEAE any cause, grade 2
  Abdominal pain: 2 (3) number of patients (percent)
  Abnormal dreams: — (represents zero events)
  Akathisia: — (represents zero events)
  Alopecia: — (represents zero events)
  Anemia: 2 (3) number of patients (percent)
  Any TEAE: 30 (50) number of patients (percent)
  Arthralgia: 2 (3) number of patients (percent)
  Arthropod bite: — (represents zero events)
  Back pain: 1 (2) number of patients (percent)
  Conjunctival hemorrhage: — (represents zero events)
  Contusion: 3 (5) number of patients (percent)
  Costochondritis: — (represents zero events)
  Cough: — (represents zero events)
  Decreased appetite: — (represents zero events)
  Defecation urgency: 1 (2) number of patients (percent)
  Diarrhea: 3 (5) number of patients (percent)
  Dizziness: — (represents zero events)
  Dyspepsia: 1 (2) number of patients (percent)
  Dyspnea: — (represents zero events)
  Dyspnea exertional: — (represents zero events)
  Edema: — (represents zero events)
  Epigastric discomfort: 1 (2) number of patients (percent)
  Epistaxis: — (represents zero events)
  Erysipelas: 1 (2) number of patients (percent)
  Fatigue: 2 (3) number of patients (percent)
  Frequent bowel movements: 1 (2) number of patients (percent)
  Headache: — (represents zero events)
  Heavy menstrual bleeding: 1 (2) number of patients (percent)
  Hypoesthesia: 1 (2) number of patients (percent)
  Hypophosphatemia: 2 (3) number of patients (percent)
  I lot flush: 1 (2) number of patients (percent)
  Ilypokalemia: — (represents zero events)
  Increased white blood cell count: 1 (2) number of patients (percent)
  Maculo-papular rash: — (represents zero events)
  Malaise: — (represents zero events)
  Micturition urgency: — (represents zero events)
  Muscle spasms: — (represents zero events)
  Myalgia: — (represents zero events)
  Nasal congestion: 1 (2) number of patients (percent)
  Nasopharyngitis: 1 (2) number of patients (percent)
  Nausea: 3 (5) number of patients (percent)
  Peripheral swelling: — (represents zero events)
  Petechiae: — (represents zero events)
  Pruritus: 1 (2) number of patients (percent)
  Purpura: — (represents zero events)
  Rash: 2 (3) number of patients (percent)
  Thrombocytopena: — (represents zero events)
  Upper abdominal pain: 1 (2) number of patients (percent)
  Upper respiratory tract infection: 1 (2) number of patients (percent)
  Urinary tract infection: 1 (2) number of patients (percent)
  Vomiting: 1 (2) number of patients (percent)
TEAE any cause, grade 3/4
  Abdominal discomfort: — (represents zero events)
  Abdominal distension: — (represents zero events)
  Abdominal pain: — (represents zero events)
  Abnormal dreams: — (represents zero events)
  Akathisia: — (represents zero events)
  Alopecia: — (represents zero events)
  Anemia: 2 (3) number of patients (percent)
  Arthralgia: — (represents zero events)
  Arthropod bite: — (represents zero events)
  Back pain: — (represents zero events)
  Conjunctival hemorrhage: — (represents zero events)
  Contusion: 1 (2) number of patients (percent)
  Costochondritis: — (represents zero events)
  Cough: — (represents zero events)
  Decreased appetite: — (represents zero events)
  Defecation urgency: — (represents zero events)
  Diarrhea: — (represents zero events)
  Dizziness: — (represents zero events)
  Dyspepsia: — (represents zero events)
  Dyspnea: — (represents zero events)
  Dyspnea exertional: — (represents zero events)
  Edema: — (represents zero events)
  Epigastric discomfort: — (represents zero events)
  Epistaxis: — (represents zero events)
  Erysipelas: — (represents zero events)
  Fatigue: — (represents zero events)
  Frequent bowel movements: — (represents zero events)
  Headache: — (represents zero events)
  Heavy menstrual bleeding: — (represents zero events)
  Hypoesthesia: — (represents zero events)
  Hypophosphatemia: — (represents zero events)
  I lot flush: — (represents zero events)
  Ilypokalemia: — (represents zero events)
  Increased white blood cell count: — (represents zero events)
  Maculo-papular rash: — (represents zero events)
  Malaise: — (represents zero events)
  Micturition urgency: — (represents zero events)
  Muscle spasms: — (represents zero events)
  Myalgia: — (represents zero events)
  Nasal congestion: — (represents zero events)
  Nasopharyngitis: — (represents zero events)
  Nausea: — (represents zero events)
  Peripheral swelling: — (represents zero events)
  Petechiae: — (represents zero events)
  Pruritus: — (represents zero events)
  Purpura: — (represents zero events)
  Rash: — (represents zero events)
  Thrombocytopena: 2 (3) number of patients (percent)
  Upper abdominal pain: — (represents zero events)
  Upper respiratory tract infection: — (represents zero events)
  Urinary tract infection: — (represents zero events)
  Vomiting: — (represents zero events)
All patients
  Rescue medication use: seven
Any cause, unrelated to rilzabrutinib treatment
  grade 3 anemia: 2 n
[1]
  grade 3 abnormal alanine aminotransferase levels: one each
  grade 3 contusion: one each
  grade 3 gastrointestinal hemorrhage: one each
  grade 3 hematoma: one each
  grade 3 immune thrombocytopenia: one each
  grade 3 myelofibrosis: one each
  grade 3 thrombocytopenia: one each
  grade 4 Evans syndrome: one each
  grade 4 thrombocytopenia: one each
Any grade
  ≥1 treatment-related, treatment-emergent adverse event: 52%
Baseline or week 24/EOS, n=34
  grade 3, 4, or 5 bleeding events (IBLS Bleeding Scale): no grade 3, 4, or 5 bleeding events
[2]
  IBLS bleeding scale scores within each domain: no increase in bleeding from baseline through the end of treatment
  IBLS bleeding scale scores, skin and oral sites: improved at skin and oral sites
